Data taken from patent US12187713B2, “Immunomodulators, compositions and methods thereof” (Betta Pharmaceuticals Co., Ltd, priority 2019, dated 2025).
pIC50: −log10 of the molar value. Counter-ions that a name gives are not always drawn.

Each molecule was assayed against PD-1/PD-L1 (Homo sapiens (Human), UniProt Q9NZQ7) (assay: PD-1/PD-L1 Binding Assay (Alphascreen)). Conditions: numeric values.
How it was run: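 PD-1/PD-L1 binding detected by anti-6×His acceptor and streptavidin donor beads after 120 min in the dark at 25 °C. Beforehand, the two proteins were incubated 15 min at 25 °C with inhibitor at 0.015–300 nM (1% DMSO). IC50 comes from a log concentration–response curve.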

PD-1/PD-L1, sequence (Q9NZQ7 19-238): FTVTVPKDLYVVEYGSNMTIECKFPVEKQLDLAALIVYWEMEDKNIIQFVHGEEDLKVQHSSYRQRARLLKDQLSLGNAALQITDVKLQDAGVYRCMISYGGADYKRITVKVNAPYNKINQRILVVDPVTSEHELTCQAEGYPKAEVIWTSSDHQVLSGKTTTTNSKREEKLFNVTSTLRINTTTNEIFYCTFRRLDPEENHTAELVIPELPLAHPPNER

Row | pIC50 | Structure (SMILES)
1 | 7.80 | COc1cc(-c2cccc(-c3cccc(-c4nc5cc(CN6CCC[C@H]6C(=O)O)c(OC(F)F)cc5o4)c3C)c2C)cc(OC)c1CN1CCCC1 [Example 254, ((6-(difluoromethoxy)-2-(3″,5″-dimethoxy-2,2′-dimethyl-4″-(pyrrolidin-1-ylmethyl)-[1,1′:3′,1″- terphenyl]-3-yl)benzo[d]oxazol-5-yl)methyl)-L-proline hydrochloride]
2 | 8.64 | Cc1c(-c2ccc(C3CCCN3)cc2)cccc1-c1cccc(-c2nc3cc(CN4CCC[C@H]4C(=O)O)c(OC(F)F)cc3o2)c1C (stereo partly drawn) [Example 255, ((6-(difluoromethoxy)-2-(2,2′-dimethyl-4″- (pyrrolidin-2-yl)-[1,1′:3′,1″-terphenyl]-3-yl)benzo[d]oxazol-5-yl)methyl)-L-proline]
3 | 8.36 | COC(=O)N[C@H](C(=O)N[C@H]1CCN(Cc2ccc(-c3cccc(-c4cccc(-c5nc6cc(CN7CCC[C@H]7C(=O)O)c(OC(F)F)cc6o5)c4C)c3C)cc2)C1)C(C)C [Example 257, ((6-(difluoromethoxy)-2-(4″-(((S)-3-((S)-2-((methoxycarbonyl)amino)-3-methylbutanamido)pyrrolidin-1-yl)methyl)-2,2′-dimethyl-[1,1′:3′,1″-terphenyl]-3-yl)benzo[d]oxazol-5-yl)methyl)-L-proline]
4 | 9.01 | Cc1c(-c2ccc(CN3CCCC3)nc2)cccc1-c1cccc(-c2nc3cc(CN4CCC[C@H]4C(=O)O)c(OC(F)F)cc3o2)c1C [Example 263, ((6-(difluoromethoxy)-2-(2,2′-dimethyl-3′-(6-(pyrrolidin-1-ylmethyl)pyridin-3-yl)-[1,1′-biphenyl]-3-yl)benzo[d]oxazol-5-yl)methyl)-L-proline]
5 | 9.14 | Cc1c(-c2cnc(CN3CCCC3)c(F)c2)cccc1-c1cccc(-c2nc3cc(CN4CCC[C@H]4C(=O)O)c(OC(F)F)cc3o2)c1C [Example 265, ((6-(difluoromethoxy)-2-(3′-(5-fluoro-6-(pyrrolidin-1-ylmethyl)pyridin-3-yl)-2,2′-dimethyl-[1,1′-biphenyl]-3-yl)benzo[d]oxazol-5-yl)methyl)-L-proline]

Same assay, conditions: range symbols

Row | pIC50 | Structure (SMILES)
6 | 7.30 to 8.30 | Cc1c(-c2ccc(CN3CC[C@@H](c4nnn[nH]4)C3)c(F)c2)cccc1-c1cccc(-c2nc3cc(CN4CCC[C@H]4C(=O)O)c(OC(F)F)cc3o2)c1C [Example 251, ((2-(4″-(((R)-3-(1H-tetrazol-5-yl)pyrrolidin-1-yl)methyl)-3″-fluoro-2,2′-dimethyl-[1,1′:3′,1″- terphenyl]-3-yl)-6-(difluoromethoxy)benzo[d]oxazol-5-yl)methyl)proline]
7 | < 7.30 | Cc1c(-c2ccc([C@H](N)C(=O)O)cc2)cccc1-c1cccc(-c2nc3cc(CN4CCC[C@H]4C(=O)O)c(OC(F)F)cc3o2)c1C [Example 256, ((2-(4″-((S)-amino(carboxy)methyl)-2,2′-dimethyl-[1,1′:3′,1″-terphenyl]-3-yl)-6-(difluoromethoxy)benzo[d]oxazol-5-yl)methyl)-L-proline]
8 | 7.30 to 8.30 | Cc1c(-c2ccc(CN3Cc4ccc(NC(N)=O)cc4C3)c(F)c2)cccc1-c1cccc(-c2nc3cc(CN4CCC[C@H]4C(=O)O)c(OC(F)F)cc3o2)c1C [Example 258, ((6-(difluoromethoxy)-2-(3″-fluoro-2,2′-dimethyl-4″-((5-ureidoisoindolin-2-yl)methyl)-[1,1′:3′,1″-terphenyl]-3-yl)benzo[d]oxazol-5-yl)methyl)-L-proline]
9 | 8.30 to 10.00 | Cc1c(-c2nc3cc(CN4CC[C@H](C(=O)O)C4)c(OC(F)F)cc3o2)cccc1-c1cccc(-c2nc3cc(CN4CC[C@H](C)C4)cc(C#N)c3o2)c1C [Example 259, (S)-1-((2-(3′-(7-cyano-5-(((S)-3-methylpyrrolidin-1-yl)methyl)benzo[d]oxazol-2-yl)-2,2′-dimethyl-[1,1′-biphenyl]-3-yl)-6-(difluoromethoxy)benzo[d]oxazol-5-yl)methyl)pyrrolidine-3-carboxylic acid]
10 | 7.30 to 8.30 | Cc1c(-c2ccc(CN3CCC(NC(N)=O)C3)c(F)c2)cccc1-c1cccc(-c2nc3cc(CN4CCC[C@H]4C(=O)O)c(OC(F)F)cc3o2)c1C (stereo partly drawn) [Example 260, ((6-(difluoromethoxy)-2-(3″-fluoro-2,2′-dimethyl-4″-((3-ureidopyrrolidin-1-yl)methyl)-[1,1′:3′,1″-terphenyl]-3-yl)benzo[d]oxazol-5-yl)methyl)-L-proline]
11 | 8.30 to 10.00 | Cc1c(-c2nc3cc(CN4CCC[C@H]4C(=O)O)c(OC(F)F)cc3o2)cccc1-c1cccc(-c2nc3cc(CN4CC[C@H](Cl)C4)cc(C#N)c3o2)c1C [Example 261, ((2-(3′-(5-(((S)-3-chloropyrrolidin-1-yl)methyl)-7-cyanobenzo [d]oxazol-2-yl)-2,2′-dimethyl-[1,1′-biphenyl]-3-yl)-6-(difluoromethoxy)benzo[d]oxazol-5-yl)methyl)-L-proline]
12 | 7.30 to 8.30 | Cc1c(-c2nc3cc(CN4CCC[C@H]4C(=O)O)c(OC(F)F)cc3o2)cccc1-c1cccc(-c2cnc(CN3CCCC3)cc2F)c1C [Example 262, ((6-(difluoromethoxy)-2-(3′-(4-fluoro-6-(pyrrolidin-1-ylmethyl)pyridin-3-yl)-2,2′-dimethyl-[1,1′-biphenyl]-3-yl)benzo[d]oxazol-5-yl)methyl)-L-proline]
13 | 8.30 to 10.00 | Cc1c(-c2ccc(CN3CCCC3)cn2)cccc1-c1cccc(-c2nc3cc(CN4CCC[C@H]4C(=O)O)c(OC(F)F)cc3o2)c1C [Example 264, ((6-(difluoromethoxy)-2-(2,2′-dimethyl-3′-(5-(pyrrolidin-1-ylmethyl)pyridin-2-yl)-[1,1′-biphenyl]-3-yl)benzo[d]oxazol-5-yl)methyl)-L-proline]
14 | 7.30 to 8.30 | Cc1c(-c2ccc(CN3CCCC3)c(=O)[nH]2)cccc1-c1cccc(-c2nc3cc(CN4CCC[C@H]4C(=O)O)c(OC(F)F)cc3o2)c1C [Example 267, ((6-(difluoromethoxy)-2-(2,2′-dimethyl-3′-(6-oxo-5-(pyrrolidin-1-ylmethyl)-1,6-dihydropyridin-2-yl)-[1,1′-biphenyl]-3-yl)benzo[d]oxazol-5-yl)methyl)-L-proline]
15 | 8.30 to 10.00 | Cc1c(-c2nc3cc(CN4CCC[C@H]4C(=O)O)c(OC(F)F)cc3o2)cccc1-c1cccc(-c2cnc(CN3CCCC3)c(F)c2)c1C(F)F [Example 268, ((6-(difluoromethoxy)-2-(2′-(difluoromethyl)-3′-(5-fluoro-6-(pyrrolidin-1-ylmethyl)pyridin-3-yl)-2-methyl-[1,1′-biphenyl]-3-yl)benzo[d]oxazol-5-yl)methyl)-L-proline]
16 | 7.30 to 8.30 | Cc1c(-c2nc3cc(CN4CCC[C@H]4C(=O)O)c(OC(F)F)cc3o2)cccc1-c1cccc(-c2cnc(CN3CCCC3)c(F)c2)c1CF [Example 269, ((6-(difluoromethoxy)-2-(3′-(5-fluoro-6-(pyrrolidin-1-ylmethyl)pyridin-3-yl)-2′-(fluoromethyl)-2-methyl-[1,1′-biphenyl]-3-yl)benzo[d]oxazol-5-yl)methyl)-L-proline]
17 | 7.30 to 8.30 | Cc1c(-c2nc3cc(CN4CCC[C@H]4C(=O)O)c(OC(F)F)cc3o2)cccc1-c1cccc(-c2ccc(CN3CCCC3)nc2F)c1C [Example 270, ((6-(difluoromethoxy)-2-(3′-(2-fluoro-6-(pyrrolidin-1-ylmethyl)pyridin-3-yl)-2,2′-dimethyl-[1,1′-biphenyl]-3-yl)benzo[d]oxazol-5-yl)methyl)-L-proline]
